Experiments:
[1] = system: C. albicans; assay: Preservation challenge test of inoculated O/W emulsion (ISO 11930), C. albicans; type: cell-based, Candida albicans; settings: PTT: 0.4 wt.-%, HG & EHG: 0.6 wt.-%
Procedure: (§1) The evaluation of the preservation of a cosmetic formulation is based on inoculation of the formulation as outlined in table 1 with calibrated inocula (prepared from relevant strains of micro-organisms). Therefore, to each formulation 0.2 ml of calibrated inoculum is added to obtain between 1×10^4 cfu/ml and 1×10^7 cfu/ml or g for bacteria, and between 1×10^2 cfu/ml and 1×10^6 cfu/ml or g for C. albicans and A. brasiliensis in the formulation (final concentration), which is mixed thoroughly into the formulation to ensure a homogeneous distribution of the inoculum. Then the respective containers containing the inoculated formulations are stored @ 22.5±2.5° C. At each specified sampling interval (initial (T0), 7 days (T7) and 28 days (T28)) 1 g of the inoculated formulation is taken and a dilution prepared to perform the enumeration of surviving micro-organisms. Then, for each time and each strain/strain mixture, the average log value is calculated which is represented in tables 2-6. (Procedure: see ISO 11930, chapter 5.2.-5.6.3.4. (page 3-13))

[2] = system: A. brasiliensis; assay: Preservation challenge test of inoculated O/W emulsion (ISO 11930), A. brasiliensis; type: cell-based, Aspergillus brasiliensis
Procedure: as §1

[3] = system: Bacterial cocktail (E. Coli, P. aeruginosa, S. aureus); assay: Preservation challenge test of inoculated O/W emulsion (ISO 11930), bacterial cocktail; type: cell-based; settings: PTT: 0.3 wt -%, HG & EHG: 0.4 wt.-%
Procedure: as §1

[4] = PTT: 0.1 wt.-%, HG & EHG: 0.9 wt.-%, time 0 days
[5] = PTT: 0.1 wt.-%, HG & EHG: 0.9 wt.-%, time 7 days
[6] = PTT: 0.1 wt.-%, HG & EHG: 0.9 wt.-%, time 28 days
[7] = PTT: 0.3 wt.-%, HG & EHG: 0.4 wt.-%, time 0 days
[8] = PTT: 0.3 wt.-%, HG & EHG: 0.4 wt.-%, time 7 days
[9] = PTT: 0.3 wt.-%, HG & EHG: 0.4 wt.-%, time 28 days
[10] = PTT: 0.4 wt.-%, HG & EHG: 0.6 wt.-%, time 0 days
[11] = PTT: 0.4 wt.-%, HG & EHG: 0.6 wt.-%, time 7 days
[12] = PTT: 0.4 wt.-%, HG & EHG: 0.6 wt.-%, time 28 days

SMILES | Average log [cfu/ml] ([1]; time 0 days) | Average log [cfu/ml] ([1]; time 7 days) | Average log [cfu/ml] ([1]; time 28 days) | Average log [cfu/ml] [2, 4] | Average log [cfu/ml] [2, 5] | Average log [cfu/ml] [2, 6] | Average log [cfu/ml] [2, 7] | Average log [cfu/ml] [2, 8] | Average log [cfu/ml] [2, 9] | Average log [cfu/ml] [2, 10] | Average log [cfu/ml] [2, 11] | Average log [cfu/ml] [2, 12] | Average log [cfu/ml] ([3]; time 0 days) | Average log [cfu/ml] ([3]; time 7 days) | Average log [cfu/ml] ([3]; time 28 days)
CC(C)CCCC(C)CCCC(C)CCCC(C)(O)C(O)CO (stereo not drawn) [PTT, 3,7,11,15-tetramethyl-hexadecane-1,2,3-triol] | 3.0 log [cfu/ml] | 6.8 log [cfu/ml] | 7.1 log [cfu/ml] | 2.1 log [cfu/ml] | 3.6 log [cfu/ml] | 4.4 log [cfu/ml] | 6.3 log [cfu/ml] | 5.7 log [cfu/ml] | 5.8 log [cfu/ml] | 1.7 log [cfu/ml] | 3.5 log [cfu/ml] | 4.5 log [cfu/ml] | 6.5 log [cfu/ml] | 2 log [cfu/ml] | 2 log [cfu/ml]
CCCCC(CC)COCC(O)CO (stereo not drawn) [EHG, Ethylhexyl glycerine] | 3.2 log [cfu/ml] | 6.1 log [cfu/ml] | 6.0 log [cfu/ml] | 4.6 log [cfu/ml] | 4.2 log [cfu/ml] | 4.5 log [cfu/ml] | 4.6 log [cfu/ml] | 4.6 log [cfu/ml] | 4.6 log [cfu/ml] | 4.6 log [cfu/ml] | 4.4 log [cfu/ml] | 4.6 log [cfu/ml] | 5.3 log [cfu/ml] | 7.0 log [cfu/ml] | 6.5 log [cfu/ml]
CCCCCCOCC(O)CO (stereo not drawn) [HG, 3-(hexyloxy)-1,2-propanediol] | 4.3 log [cfu/ml] | 3.6 log [cfu/ml] | 3.1 log [cfu/ml] | 4.2 log [cfu/ml] | 1.3 log [cfu/ml] | 0 log [cfu/ml] | 4.7 log [cfu/ml] | 3.7 log [cfu/ml] | 3.5 log [cfu/ml] | 4.3 log [cfu/ml] | 3.6 log [cfu/ml] | 3.1 log [cfu/ml] | 4.9 log [cfu/ml] | 5.7 log [cfu/ml] | 5.6 log [cfu/ml]

From patent US20220211594A1, “TOPICAL COMPOSITIONS” (DSM IP ASSETS B.V., priority 2019, published 2022)
